Measurements published in patent US20160058751A1, “COMPOSITION AND METHOD FOR TREATING CANCER” (CELLWORKS GROUP, INC., priority 2013, published 2016).

Experiments:
[1] = system: A549 human lung cancer cell line; test: CellTiter 96 Aqueous One relative growth assay; format: cell-based
[2] = system: H1650 human lung cancer cell line; test: CellTiter 96 Aqueous One relative growth assay; format: cell-based
[3] = system: CaCo-2 human colon cancer cell line; test: CellTiter 96 Aqueous One relative growth assay; format: cell-based; conditions: Sorafenib up to 5 μM, Atorvastatin up to 40 μM
[4] = system: SW48 human colon cancer cell line; test: CellTiter 96 Aqueous One relative growth assay; format: cell-based
Excerpt: The SW48 human colon cancer cell line was procured from ATCC (American Type Culture Collection, Manassas, Va.).

[5] = cited from earlier work
[6] = system: HCT116 xenograft; test: mouse xenograft model of HCT116
[7] = system: CAPAN1 xenograft; test: mouse xenograft model of CAPAN1
[8] = system: HCT116 human colon cancer cell line; test: CellTiter 96 Aqueous One relative growth assay
[9] = BMS-303141 up to 20 μM, Sorafenib 3 μM and 5 μM
[10] = Sorafenib up to 5 μM, Atorvastatin up to 40 μM
[11] = oral 100 mg solution formulation

CNC(=O)c1cc(Oc2ccc(NC(=O)Nc3ccc(Cl)c(C(F)(F)F)c3)cc2)ccn1 [Sorafenib, 4-[4-[[4-chloro-3-(trifluoromethyl)phenyl]carbamoylamino]phenoxy]-N-methylpyridine-2-carboxamide]
cell viability (FIG. 78) [1, 9]: negligible decrease
cell viability (FIG. 71) [1, 10]: negligible decrease
cell viability (FIG. 79) [2, 9]: minor decrease
cell viability (FIG. 72) [2, 10]: negligible decrease
cell viability (FIG. 74) [3]: negligible effect
cell viability (FIG. 81) [4, 9]: minimal decrease
cell viability (FIG. 75) ([4]; Sorafenib up to 5 μM, Atorvastatin up to 10 μM): negligible effect
bioavailability reduced by ([5]; high-fat meal compared to fasted state): about 29%
Half-life ([5]; in vivo): 25 to 48 h
dose excreted in feces [5, 11]: 77%
dose excreted in urine as glucuronidated metabolites [5, 11]: 19%
dose recovered ([5]; oral 100 mg solution formulation, within 14 days): 96%
share of the circulating analytes in plasma at steady-state ([5]; plasma, steady-state): 70-85%
body weight [6]: not significantly affected
survival (Kaplan-Meier survival curve) [6]: prolonged survival rates
inhibition of tumor volume / tumor growth ([6]; at 19 days): 16%
body weight [7]: not significantly affected
survival (Kaplan-Meier survival curve) [7]: slightly prolonged survival rates
cell viability (FIG. 80) [8, 9]: a decrease
cell viability (FIG. 73) [8, 10]: insignificant decrease
